Read-outs that look alike come from different tables or passages of the source.
What was measured:
[1] = tested on: mixed lymphocyte reaction; conditions: rat; cited from earlier work
[2] = tested on: mixed lymphocyte reaction; conditions: mouse; cited from earlier work
[3] = tested on: mixed lymphocyte reaction; conditions: rabbit; cited from earlier work
[4] = Blood pressure and heart rate during infusion; type: in vivo, Yucatan mini-pig; conditions: during infusion of 25 µg over 2.5 h
Experimental: A Yucatan mini-pig received 25 µg of margatoxin in 30 ml of vehicle (5% autologous serum in 1:1 saline to PBS solution) over 2.5 h. […] Margatoxin was undetectable in the plasma in 24 h. Plasma level of MgTX was determined in a competition binding assay, by its inhibition of ^125I-labeled MgTX binding to Kv1.3 channels present in isolated plasma membranes. […] Similar pharmokinetic study was performed six times, with good correlations between high plasma levels of margatoxin and the lower response to PMA/ION. Yucatan mini-pigs receiving vehicle had no significant fluctuation of responses to PMA/ION. Therefore, this ex vivo test provides an assessment of the in vivo biological effect of margatoxin and can also be used to study the immunosuppressant effects of other ion channel blockers.

[5] = target: T1, Kv1.3 channels of the pig T cells (Sus scrofa, UniProt A0A5G2QN06); conditions: electrophysiological analyses, unpublished communication from Reid Leonard; cited from earlier work
T1 construct: endogenous in cells; host or cells: pig T cells

pig mononuclear cells = test: In vitro PMA/ionomycin induced proliferation of mononuclear cells ([3H]thymidine incorporation); type: cell-based
mononuclear cells = test: Ex vivo PMA/ionomycin-induced proliferation of mononuclear cells after in vivo infusion; parameters: species or system Yucatan mini-pig; conditions: 25 µg in 30 ml of vehicle infused over 2.5 h
[6] = tested on: mixed lymphocyte reaction; conditions: guinea pig; cited from earlier work
[7] = 25 µg infused over 2.5 h
[8] = tested on: mixed lymphocyte reaction; test: Mixed lymphocyte reaction (pig); type: cell-based
Excerpt: Mini-swine was recently selected to validate the concept that blocking the voltage activated K+ channels (Kv1.3) is a target for immunomodulation.

T1 sequence (A0A5G2QN06 1-588): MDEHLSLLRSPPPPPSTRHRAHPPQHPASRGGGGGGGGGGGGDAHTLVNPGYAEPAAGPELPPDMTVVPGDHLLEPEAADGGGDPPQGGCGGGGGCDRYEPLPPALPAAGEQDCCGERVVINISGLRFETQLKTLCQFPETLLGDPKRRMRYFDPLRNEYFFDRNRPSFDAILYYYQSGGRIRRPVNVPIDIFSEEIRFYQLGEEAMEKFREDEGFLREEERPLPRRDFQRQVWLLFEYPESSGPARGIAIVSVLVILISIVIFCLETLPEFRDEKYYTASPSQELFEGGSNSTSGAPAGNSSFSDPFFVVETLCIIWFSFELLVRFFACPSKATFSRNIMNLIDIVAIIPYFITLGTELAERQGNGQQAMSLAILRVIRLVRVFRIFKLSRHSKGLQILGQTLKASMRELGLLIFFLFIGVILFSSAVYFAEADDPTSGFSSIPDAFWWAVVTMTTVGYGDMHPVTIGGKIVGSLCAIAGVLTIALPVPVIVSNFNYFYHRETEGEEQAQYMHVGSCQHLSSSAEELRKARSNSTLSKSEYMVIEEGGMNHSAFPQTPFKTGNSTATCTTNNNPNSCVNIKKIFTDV

What does the source list for Margatoxin?
inhibition of the mixed lymphocyte reaction [1]: not inhibited; inhibition of the mixed lymphocyte reaction [2]: not inhibited; inhibition of the mixed lymphocyte reaction [3]: not inhibited; rise in blood pressure [4]: no significant rise; rise in heart rate [4]: no significant rise; block of the Kv1.3 channels [5]: block; PMA/ionomycin (ION) induced proliferation (pig mononuclear cells; pig mononuclear cells, in vitro): equally inhibited; suppression of the proliferative response to PMA/ION (pig mononuclear cells; whole blood spiked with Margatoxin): significant suppression; Unresponsiveness to PMA/ION, duration sustained post-infusion (mononuclear cells): 4.5 h; Unresponsiveness to PMA/ION, time of maximum (mononuclear cells): maximal at the end of infusion; inhibition of the mixed lymphocyte reaction [6]: not inhibited; Plasma level ([7]; in 24 h): undetectable; half-life ([7]; plasma): about 2 h; Cmax ([7]; read-out: Plasma level, peak, at the end of infusion): 0.6 nM; concentration ([7]; read-out: Plasma level, at 4.5 h post-infusion): 0.1 nM; inhibition of the mixed lymphocyte reaction [8]: inhibit

— patent EP0851766B1, “METHOD FOR ANALYZING THE IMMUNOS[…] OF ION CHANNEL BLOCKERS USING THE MINI-PIG” (MERCK & CO., INC., priority 1995, dated 1997)
